Assay results reported in PubChem BioAssay AID256 (DTP/NCI, 2004).
Values joined by “and” are separate entries in the source; they are usually repeats but may differ in a detail not shown here. Identical values can stand only once. Toxic doses and inconclusive results are not listed.

System: CD2F1 mice, L1210 leukemia ip, survival T/C
Assay: NCI In Vivo Anticancer Drug Screen. Data for tumor model L1210 Leukemia (intraperitoneal) in CD2F1 (CDF1) mice
Conditions: endpoint: mean survival time, higher = longer survival
In short: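 Tumor-bearing mice (transplanted tumor) were split into treated and vehicle control groups, and the measured endpoint of each treated group was divided by that of its vehicle controls.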

[1] = dose: 3.12 mg/kg/injection, schedule: Q01DX009 (ip), vehicle: saline with Tween-80
[2] = dose: 6.25 mg/kg/injection, schedule: Q01DX009 (ip), vehicle: saline with Tween-80
[3] = dose: 12.5 mg/kg/injection, schedule: Q01DX009 (ip), vehicle: saline with Tween-80
[4] = dose: 25.0 mg/kg/injection, schedule: Q01DX009 (ip), vehicle: saline with Tween-80
[5] = dose: 50.0 mg/kg/injection, schedule: Q01DX009 (ip), vehicle: saline with Tween-80
[6] = dose: 100.0 mg/kg/injection, schedule: Q01DX009 (ip), vehicle: saline with Tween-80
[7] = dose: 100.0 mg/kg/injection, schedule: Q04DX002 (ip), vehicle: saline with Tween-80
[8] = dose: 200.0 mg/kg/injection, schedule: Q04DX002 (ip), vehicle: saline with Tween-80
[9] = dose: 400.0 mg/kg/injection, schedule: Q04DX002 (ip), vehicle: saline with Tween-80
[10] = dose: 50.0 mg/kg/injection, schedule: Q04DX003 (ip), vehicle: saline
[11] = dose: 100.0 mg/kg/injection, schedule: Q04DX003 (ip), vehicle: saline
[12] = dose: 200.0 mg/kg/injection, schedule: Q04DX003 (ip), vehicle: saline
[13] = dose: 100.0 mg/kg/injection, schedule: Q01DX001 (ip), vehicle: saline with Tween-80
[14] = dose: 200.0 mg/kg/injection, schedule: Q01DX001 (ip), vehicle: saline with Tween-80
[15] = dose: 200.0 mg/kg/injection, schedule: Q01DX009 (ip), vehicle: saline with Tween-80
[16] = dose: 400.0 mg/kg/injection, schedule: Q01DX001 (ip), vehicle: saline with Tween-80
[17] = dose: 100.0 mg/kg/injection, schedule: Q04DX003 (ip), vehicle: saline with Tween-80
[18] = dose: 200.0 mg/kg/injection, schedule: Q04DX003 (ip), vehicle: saline with Tween-80
[19] = dose: 400.0 mg/kg/injection, schedule: Q04DX003 (ip), vehicle: saline with Tween-80
[20] = dose: 400.0 mg/kg/injection, schedule: Q01DX009 (ip), vehicle: saline with Tween-80

## CS(=O)(=O)OCCN(CCOS(C)(=O)=O)c1ccc(C=O)cc1
[1]
  T/C: 113 % of control and 115 % of control
[2]
  T/C: 115 % of control and 112 % of control
[3]
  T/C: 117 % of control
dose: 12.5 mg/kg/injection, schedule: Q01DX009 (ip), vehicle: saline
  T/C: 96 % of control
[4]
  T/C: 112 % of control
dose: 25.0 mg/kg/injection, schedule: Q01DX009 (ip), vehicle: saline
  T/C: 102 % of control
[5]
  T/C: 95 % of control

## CNC(C)C(O)c1ccccc1 (stereo not given)
[5]
  T/C: 100 % of control
[6]
  T/C: 97 % of control

## CC(C)CCCC(C)C1CCC2C3CCC4CC(OCN5CCCCC5)CCC4(C)C3CCC12C (stereo not given)
dose: 100.0 mg/kg/injection, schedule: Q04DX003 (ip), vehicle: Klucel (hydroxypropylcellulose) (HPC)
  T/C: 95 % of control
dose: 200.0 mg/kg/injection, schedule: Q04DX003 (ip), vehicle: Klucel (hydroxypropylcellulose) (HPC)
  T/C: 92 % of control
dose: 400.0 mg/kg/injection, schedule: Q04DX003 (ip), vehicle: Klucel (hydroxypropylcellulose) (HPC)
  T/C: 92 % of control

## CCc1nc(N)nc(N)c1-c1ccc(Cl)c([N+](=O)[O-])c1
[1]
  T/C: 101 % of control
[2]
  T/C: 106 % of control

## CC/C=N/NC(=O)c1ccc[n+](C)c1
[7]
  T/C: 100 % of control
[8]
  T/C: 92 % of control
[9]
  T/C: 96 % of control

## O=P(O)(O)c1ccc(I)cc1
[10]
  T/C: 94 % of control
[11]
  T/C: 94 % of control
[12]
  T/C: 98 % of control

## CCCCn1cnc2c(=S)nc(N)[nH]c21
[4]
  T/C: 162 % of control
[5]
  T/C: 171 % of control
dose: 50.0 mg/kg/injection, schedule: Q04DX003 (ip), vehicle: saline with Tween-80
  T/C: 157 % of control

## C(=C\c1ccccn1)/c1ccccc1
[13]
  T/C: 100 % of control
[6]
  T/C: 94 % of control
[14]
  T/C: 89 % of control
[15]
  T/C: 101 % of control
[16]
  T/C: 92 % of control

## CC(=Nc1ccccc1)c1ccc2ccccc2c1
[17]
  T/C: 98 % of control
[18]
  T/C: 93 % of control
[19]
  T/C: 97 % of control

## CCOC(=O)C(OCC)C1=Cc2ccccc2CC1 (stereo not given)
dose: 12.5 mg/kg/injection, schedule: Q01DX005 (ip), vehicle: Klucel (hydroxypropylcellulose) (HPC)
  T/C: 97 % of control
dose: 25.0 mg/kg/injection, schedule: Q01DX005 (ip), vehicle: Klucel (hydroxypropylcellulose) (HPC)
  T/C: 97 % of control
dose: 50.0 mg/kg/injection, schedule: Q01DX005 (ip), vehicle: Klucel (hydroxypropylcellulose) (HPC)
  T/C: 98 % of control
dose: 100.0 mg/kg/injection, schedule: Q01DX005 (ip), vehicle: Klucel (hydroxypropylcellulose) (HPC)
  T/C: 93 % of control
dose: 200.0 mg/kg/injection, schedule: Q01DX005 (ip), vehicle: Klucel (hydroxypropylcellulose) (HPC)
  T/C: 89 % of control
dose: 400.0 mg/kg/injection, schedule: Q01DX005 (ip), vehicle: Klucel (hydroxypropylcellulose) (HPC)
  T/C: 98 % of control

## COc1ccccc1N/N=C1/CCCNC1=O
[6]
  T/C: 98 % of control
[15]
  T/C: 101 % of control
[20]
  T/C: 95 % of control

## CCOC(=O)CCc1ccc2c(c1)OCO2
[6]
  T/C: 103 % of control
[15]
  T/C: 103 % of control
[20]
  T/C: 113 % of control

## CC(C)CN(CC(C)C)C(=S)[S-].CC(C)CN(CC(C)C)C(=S)[S-].[Zn]
dose: 75.0 mg/kg/injection, schedule: Q04DX003 (ip), vehicle: saline
  T/C: 91 % of control
dose: 150.0 mg/kg/injection, schedule: Q04DX003 (ip), vehicle: saline
  T/C: 89 % of control
dose: 300.0 mg/kg/injection, schedule: Q04DX003 (ip), vehicle: saline
  T/C: 95 % of control

## COC(=O)c1cc(-c2ccccc2)n(-c2ccccc2)c1-c1ccccc1
dose: 100.0 mg/kg/injection, schedule: Q01DX001 (ip), vehicle: Klucel (hydroxypropylcellulose) (HPC)
  T/C: 94 % of control
[7]
  T/C: 90 % of control
dose: 200.0 mg/kg/injection, schedule: Q01DX001 (ip), vehicle: Klucel (hydroxypropylcellulose) (HPC)
  T/C: 89 % of control
[8]
  T/C: 87 % of control
dose: 400.0 mg/kg/injection, schedule: Q01DX001 (ip), vehicle: Klucel (hydroxypropylcellulose) (HPC)
  T/C: 89 % of control
[9]
  T/C: 94 % of control

## CCN(CC)CCCC(C)N (stereo not given)
[10]
  T/C: 101 % of control

## CCCCCCCCCCCCCCCCOc1ccc(-c2cc(Cl)c3cc(S(=O)(=O)F)ccc3n2)cc1S(=O)(=O)F
[6]
  T/C: 97 % of control
[15]
  T/C: 98 % of control
[18]
  T/C: 87 % of control
[19]
  T/C: 95 % of control

## COC1CCC(/C=C(\C#N)C2CCC([N+](=O)[O-])CC2)CC1 (stereo not given)
[4]
  T/C: 86 % of control
[5]
  T/C: 88 % of control
[20]
  T/C: 94 % of control

## CC(=O)SCCNCC(C)(C)S
[11]
  T/C: 98 % of control
[12]
  T/C: 98 % of control
dose: 400.0 mg/kg/injection, schedule: Q04DX003 (ip), vehicle: saline
  T/C: 95 % of control

## Nc1ccc2ccccc2c1-c1c(N)ccc2ccccc12
dose: 18.7 mg/kg/injection, schedule: Q04DX002 (ip), vehicle: saline with Tween-80
  T/C: 91 % of control
dose: 37.5 mg/kg/injection, schedule: Q04DX002 (ip), vehicle: saline with Tween-80
  T/C: 91 % of control
dose: 75.0 mg/kg/injection, schedule: Q04DX002 (ip), vehicle: saline with Tween-80
  T/C: 102 % of control

## O=C1C=C(C2OC(CO)C(O)C2O)C(=O)N1 (stereo not given)
dose: 5.0 mg/kg/injection, schedule: Q01DX009 (ip), vehicle: saline with Tween-80
  T/C: 106 % of control
dose: 10.0 mg/kg/injection, schedule: Q01DX009 (ip), vehicle: saline with Tween-80
  T/C: 111 % of control
dose: 20.0 mg/kg/injection, schedule: Q01DX009 (ip), vehicle: saline with Tween-80
  T/C: 111 % of control

## Cn1c(=O)[nH]c2nc(-c3ccccc3)[nH]c2c1=O
dose: 12.5 mg/kg/injection, schedule: Q01DX005 (ip), vehicle: other
  T/C: 89 % of control
dose: 25.0 mg/kg/injection, schedule: Q01DX005 (ip), vehicle: other
  T/C: 87 % of control
dose: 50.0 mg/kg/injection, schedule: Q01DX005 (ip), vehicle: other
  T/C: 86 % of control
dose: 100.0 mg/kg/injection, schedule: Q01DX005 (ip), vehicle: other
  T/C: 86 % of control
dose: 200.0 mg/kg/injection, schedule: Q01DX005 (ip), vehicle: other
  T/C: 87 % of control

## COC(=Nc1ccccc1)SSC(C)C
[2]
  T/C: 93 % of control and 101 % of control
[3]
  T/C: 97 % of control and 108 % of control
[4]
  T/C: 98 % of control and 104 % of control
[5]
  T/C: 98 % of control and 108 % of control
[6]
  T/C: 106 % of control
[15]
  T/C: 108 % of control

## O=C(SCN1CCCCC1)c1ccccc1
[5]
  T/C: 98 % of control
[6]
  T/C: 103 % of control
[17]
  T/C: 97 % of control
[18]
  T/C: 95 % of control

## CCOC(=O)Nc1cc(NC(c2ccccc2)c2ccccc2)c([N+](=O)[O-])c(Cl)n1
dose: 100.0 mg/kg/injection, schedule: Q01DX001 (ip), vehicle: carboxymethylcellulose (CMC)
  T/C: 95 % of control
dose: 200.0 mg/kg/injection, schedule: Q01DX001 (ip), vehicle: carboxymethylcellulose (CMC)
  T/C: 93 % of control
dose: 400.0 mg/kg/injection, schedule: Q01DX001 (ip), vehicle: carboxymethylcellulose (CMC)
  T/C: 91 % of control

## CCOc1ccc(N=Nc2sc(N)nc2-c2cccc([N+](=O)[O-])c2)cc1
[13]
  T/C: 89 % of control
[14]
  T/C: 96 % of control
[16]
  T/C: 96 % of control

## CCOC(=O)C1(C(=O)OCC)CCC(O)N1C(=O)c1cc2c(cc1[N+](=O)[O-])OCO2 (stereo not given)
dose: 50.0 mg/kg/injection, schedule: Q01DX009 (ip), vehicle: Klucel (hydroxypropylcellulose) (HPC)
  T/C: 97 % of control
dose: 100.0 mg/kg/injection, schedule: Q01DX009 (ip), vehicle: Klucel (hydroxypropylcellulose) (HPC)
  T/C: 101 % of control
dose: 200.0 mg/kg/injection, schedule: Q01DX009 (ip), vehicle: Klucel (hydroxypropylcellulose) (HPC)
  T/C: 101 % of control

## CN(C)C(=S)Oc1ccc(S(=O)(=O)F)c(Cl)c1Cl
[7]
  T/C: 87 % of control
[9]
  T/C: 87 % of control

## CS(=O)(=O)OCCN(CCOS(C)(=O)=O)c1cccc(Cl)c1
dose: 2.0 mg/kg/injection, schedule: Q01DX010 (ip), vehicle: saline
  T/C: 112 % of control
dose: 4.0 mg/kg/injection, schedule: Q01DX010 (ip), vehicle: saline
  T/C: 112 % of control
dose: 4.0 mg/kg/injection, schedule: Q01DX015 (ip), vehicle: saline
  T/C: 116 % of control
dose: 8.0 mg/kg/injection, schedule: Q01DX010 (ip), vehicle: saline
  T/C: 150 % of control
dose: 8.0 mg/kg/injection, schedule: Q01DX015 (ip), vehicle: saline
  T/C: 119 % of control
